Measurements taken from ChEMBL document CHEMBL5356989, “Impact of multiple H/D replacements on the physicochemical properties of flurbiprofen” (RSC Med Chem, 2023).
In brackets after ≈: the same amount, converted by molar mass.

Columns and labels:
Cytochrome P450 2C9 [1] = target: T1, Cytochrome P450 2C9 (Homo sapiens, UniProt P11712); assay: Drug metabolism assessed as recombinant CYP2C9 (unknown origin)-mediated 4'-hydroxyl FP-d7 metabolite formation at 1 to 5 uM incubated for 10 mins in presence of NADPH by LC-MS analysis; assay type: ADME; settings: recombinant enzyme, dose 1-5 µM
T1 sequence (P11712 whole entry): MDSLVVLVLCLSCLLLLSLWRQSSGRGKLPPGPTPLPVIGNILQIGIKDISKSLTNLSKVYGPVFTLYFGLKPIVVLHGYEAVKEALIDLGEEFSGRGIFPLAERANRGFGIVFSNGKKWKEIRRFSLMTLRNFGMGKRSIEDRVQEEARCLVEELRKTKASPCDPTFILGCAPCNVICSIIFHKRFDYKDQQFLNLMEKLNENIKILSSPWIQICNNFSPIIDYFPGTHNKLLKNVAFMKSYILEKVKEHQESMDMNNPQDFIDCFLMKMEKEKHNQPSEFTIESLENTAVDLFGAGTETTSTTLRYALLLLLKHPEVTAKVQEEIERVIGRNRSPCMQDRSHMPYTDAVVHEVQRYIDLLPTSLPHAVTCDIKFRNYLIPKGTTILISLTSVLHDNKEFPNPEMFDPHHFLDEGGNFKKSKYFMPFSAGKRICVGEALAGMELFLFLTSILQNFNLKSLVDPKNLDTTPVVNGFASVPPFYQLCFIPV

Cytochrome P450 2C9 [2] = target: T1, Cytochrome P450 2C9; assay: Drug metabolism assessed as recombinant CYP2C9 (unknown origin)-mediated 4'-hydroxyl FP-d7 metabolite formation by measuring Vmax per nmol of CYP at 1 to 5 uM incubated for 10 mins in presence of NADPH by LC-MS analysis; assay type: ADME; settings: recombinant enzyme, dose 1-5 µM
Cytochrome P450 2C9 [3] = target: T1, Cytochrome P450 2C9; assay: Drug metabolism assessed as recombinant CYP2C9 (unknown origin)-mediated 4'-hydroxyl FP-d7 metabolite formation by measuring Vmax/Km per nmol of CYP at 1 to 5 uM incubated for 10 mins in presence of NADPH by LC-MS analysis; assay type: ADME; settings: recombinant enzyme, dose 1-5 µM
[4] = Cmax in fasted Sprague Dawley rat at 10 mg/kg, po measured for 8 hrs by HPLC analysis; assay type: ADME, organism-based; design: dose 10 mg/kg, time 8 hrs, route po; settings: in vivo
[5] = Tmax in fasted Sprague Dawley rat at 10 mg/kg, po measured for 8 hrs by HPLC analysis; assay type: ADME, organism-based; settings: in vivo
[6] = AUC (0 to 8 hrs) in fasted Sprague Dawley rat at 10 mg/kg, po measured for 8 hrs by HPLC analysis; assay type: ADME, organism-based; design: dose 10 mg/kg, time 8 hrs, route po; settings: in vivo
[7] = Oral bioavailability in fasted Sprague Dawley rat at 10 mg/kg measured for 8 hrs by HPLC analysis; assay type: ADME, organism-based; settings: in vivo
[8] = Clearance in Sprague Dawley rat at 1 mg/kg, iv measured for 8 hrs by HPLC analysis; assay type: ADME, organism-based; settings: in vivo
[9] = Volume of distribution at steady state in Sprague Dawley rat at 1 mg/kg, iv measured for 8 hrs by HPLC analysis; assay type: ADME, organism-based; settings: in vivo, read-out: Vdss
[10] = AUC (0 to 8 hrs) in Sprague Dawley rat at 1 mg/kg, iv measured for 8 hrs by HPLC analysis; assay type: ADME, organism-based; design: dose 1 mg/kg, time 8 hrs, route iv; settings: in vivo
[11] = Lipophilicity, log D of compound in n-octanol/PBS at pH 7.4 at 10 mg measured for 48 hrs by HPLC analysis; assay type: physicochemical
[12] = Solubility in distilled water at 1 mg measured for 28 hrs by HPLC analysis; assay type: physicochemical
[13] = Solubility in HCl at pH 1.2 at 1 mg measured for 28 hrs by HPLC analysis; assay type: physicochemical; settings: HCl pH 1.2, pH 1.2
[14] = Solubility in PBS at pH 6.0 at 1 mg measured for 28 hrs by HPLC analysis; assay type: physicochemical; settings: PBS pH 6.0, pH 6
[15] = Permeability of compound assessed as drug flux measured for 2 to 6 hrs by PAMPA assay; assay type: ADME; settings: time 2-6 hrs
[16] = Apparent permeability of compound by PAMPA assay; assay type: ADME
[17] = Half life in Sprague Dawley rat at 1 mg/kg, iv measured for 8 hrs by HPLC analysis; assay type: ADME, organism-based; settings: in vivo
Cytochrome P450 2C9 [18] = target: T1, Cytochrome P450 2C9; assay: Drug metabolism assessed as recombinant CYP2C9 (unknown origin)-mediated 4'-hydroxy FP metabolite formation at 1 to 5 uM incubated for 10 mins in presence of NADPH by LC-MS analysis; assay type: ADME; settings: recombinant enzyme, dose 1-5 µM

Row | Compound | Drug metabolism (Cytochrome P450 2C9 [1]) | Vmax (Cytochrome P450 2C9 [2]) [pmol/min] | Vmax/Km (Cytochrome P450 2C9 [3]) [µL/min] | Cmax [4] [ng/mL] | Tmax [5] [min] | AUC(0-t) at 8 h [6] [ng·h/mL] | bioavailability [7] [%] | clearance [8] [mL/min/kg] | Vd [9] [L/kg] | AUC(0-t) at 8 h [10] [ng·h/mL] | logD at 48 h [11] | solubility at 28 h [12] [µg/mL] | solubility at 28 h [13] [µg/mL] | solubility at 28 h [14] [µg/mL] | Drug transport [15] [µg/h] | Papp [16] [×10⁻⁶ cm/s] | half-life [17] [min] | Drug metabolism (Cytochrome P450 2C9 [18])
1 | [2H]c1c([2H])c([2H])c(-c2c([2H])c([2H])c(C(C)C(=O)O)c([2H])c2F)c([2H])c1[2H] (configuration not stated) | Metabolite_Detected | 0.91 | 1.24 | 33000 | 60 | 144000 | 75.3 | 0.217 | 0.0207 | 19200 | 0.87 | 32.7 (≈ 129 µM) | 12.7 (≈ 50.5 µM) | 918 (≈ 3640 µM) | 4.6 | 5.32 | 33 | –
2 | CC(C(=O)O)c1ccc(-c2ccccc2)c(F)c1 (configuration not stated) [FLURBIPROFEN] | – | – | – | 29600 | 30 | 130000 | 66.9 | 0.216 | 0.0204 | 19500 | 0.9 | 24.1 (≈ 98.7 µM) | 5.9 (≈ 24.2 µM) | 810 (≈ 3310 µM) | 4.53 | 5.24 | 34.2 | Metabolite_Detected
